This passage reports IC50 results from patent US11111237B2, “Bicyclic compound and use thereof” (SK BIOPHARMACEUTICALS CO., LTD., priority 2019, dated 2021).

PRMT5-MEP50 enzyme complex, sequence (O14744 2-637): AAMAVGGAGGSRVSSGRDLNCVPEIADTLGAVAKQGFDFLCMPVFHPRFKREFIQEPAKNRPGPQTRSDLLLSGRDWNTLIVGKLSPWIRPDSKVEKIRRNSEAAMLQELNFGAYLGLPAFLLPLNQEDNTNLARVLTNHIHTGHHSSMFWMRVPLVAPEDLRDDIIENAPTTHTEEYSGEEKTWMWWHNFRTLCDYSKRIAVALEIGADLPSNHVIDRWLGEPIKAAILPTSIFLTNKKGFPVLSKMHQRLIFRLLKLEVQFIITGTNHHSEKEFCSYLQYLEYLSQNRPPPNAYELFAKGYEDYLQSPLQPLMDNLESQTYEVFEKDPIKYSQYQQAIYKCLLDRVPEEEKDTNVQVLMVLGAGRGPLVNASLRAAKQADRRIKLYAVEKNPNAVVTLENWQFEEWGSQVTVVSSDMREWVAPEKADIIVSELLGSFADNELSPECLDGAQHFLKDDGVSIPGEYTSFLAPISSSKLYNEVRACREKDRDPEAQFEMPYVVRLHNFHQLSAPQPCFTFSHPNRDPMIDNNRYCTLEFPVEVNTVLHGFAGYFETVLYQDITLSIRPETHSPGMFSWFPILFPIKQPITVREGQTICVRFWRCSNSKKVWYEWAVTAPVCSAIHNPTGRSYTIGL
PRMT5-MEP50 enzyme complex, sequence (Q9BQA1 2-342 partner): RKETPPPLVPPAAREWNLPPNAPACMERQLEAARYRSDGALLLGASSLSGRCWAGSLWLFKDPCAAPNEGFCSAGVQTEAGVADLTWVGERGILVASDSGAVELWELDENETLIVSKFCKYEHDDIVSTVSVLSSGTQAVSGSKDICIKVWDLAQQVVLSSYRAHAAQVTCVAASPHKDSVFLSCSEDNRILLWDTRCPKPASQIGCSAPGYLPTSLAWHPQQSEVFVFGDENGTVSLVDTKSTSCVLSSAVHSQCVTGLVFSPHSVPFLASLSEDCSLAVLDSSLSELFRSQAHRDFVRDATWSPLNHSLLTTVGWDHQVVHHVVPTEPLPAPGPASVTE

The experiment addresses PRMT5-MEP50 enzyme complex (Homo sapiens (Human), UniProt O14744). The experiment can be described thus: PRMT5 enzyme activity in vitro assay (methylation of histone H4R3, ELISA absorbance at 450 nm). Type of experiment: biochemical. The conditions noted are these: SAM, histone H4 peptide, room temperature 2 hours, 8 points from 10 μM to 0.128 nM. A digest of the protocol: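 IC50 was derived from ELISA absorbance at 450 nm, using primary and HRP antibodies against H4R3 methylation on immobilised histone H4 peptide (residues 1-20). Compounds (10 μM to 0.128 nM, 8 points, 1:5) were incubated 2 h at room temperature with the PRMT5-MEP50 complex and SAM, diluted to 5 μg/mL and 2 μM respectively.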
In turn, `CC(=O)N1CCC(Oc2ccc3c(c2)OCCN(C[C@H](O)CN2CCc4ccccc4C2)C3=O)C1` (stereo partly drawn) [Example 80, 8-(1-acetylpyrrolidin-3-yl)oxy-4-[(2R)-3-(3,4-dihydro-1H-isoquinolin-2-yl)-2-hydroxy-propyl]-2,3-dihydro-1,4-benzoxazepin-5-one] yielded an IC50 of 100 to 1000 nM.

On to `O=C1c2ccc(OCc3ccc(F)cn3)cc2OCCN1C[C@H](O)CN1CCc2ccccc2C1` [Example 63, 4-[(2R)-3-(3,4-dihydro-1H-isoquinolin-2-yl)-2-hydroxy-propyl]-8-[(5-fluoro-2-pyridyl)methoxy]-2,3-dihydro-1,4-benzoxazepin-5-one], for which the IC50 is 1 to 100 nM.

In turn, `COCCN1CCC(Oc2ccc3c(c2)O[C@H](C)CN(C[C@H](O)CN2CCc4ccccc4C2)C3=O)CC1` [Example 224, (2R)-4-[(2R)-3-(3,4-dihydro-1H-isoquinolin-2-yl)-2-hydroxy-propyl]-8-[[1-(2-methoxyethyl)-4-piperidyl]oxy]-2-methyl-2,3-dihydro-1,4-benzoxazepin-5-one] had an IC50 of 100 to 1000 nM.

On to `CN1CC(Oc2ccc3c(c2)OCCN(C[C@H](O)CN2CCc4ccccc4C2)C3=O)C1` [Example 93, 4-[(2R)-3-(3,4-dihydro-1H-isoquinolin-2-yl)-2-hydroxy-propyl]-8-(1-methylazetidin-3-yl)oxy-2,3-dihydro-1,4-benzoxazepin-5-one], for which the IC50 is 100 to 1000 nM.

`CC1CCN(Cc2ccc3c(c2)OCCN(C[C@H](O)CN2CCc4ccccc4C2)C3=O)CC1` [Example 27, 4-[(2R)-3-(3,4-dihydro-1H-isoquinolin-2-yl)-2-hydroxy-propyl]-8-[(4-methyl-1-piperidyl)methyl]-2,3-dihydro-1,4-benzoxazepin-5-one] registered an IC50 of 1 to 100 nM.

Consider `CC(=O)N1CC(Oc2ccc3c(c2)N(C)CCN(C[C@H](O)CN2CCc4ccccc4C2)C3=O)C1` [Example 122, 8-(1-acetylazetidin-3-yl)oxy-4-[(2R)-3-(3,4-dihydro-1H-isoquinolin-2-yl)-2-hydroxy-propyl]-1-methyl-2,3-dihydro-1,4-benzodiazepin-5-one], for which the IC50 was in the range of 100 to 1000 nM.

As for `CN1CCN(C[C@H](O)CN2CCc3ccccc3C2)C(=O)c2ccc(CN3CCOCC3)cc21` [Example 115, 4-[(2R)-3-(3,4-dihydro-1H-isoquinolin-2-yl)-2-hydroxy-propyl]-1-methyl-8-(morpholinomethyl)-2,3-dihydro-1,4-benzodiazepin-5-one], the IC50 lay within 1 to 100 nM.

The molecule `CN1CCC(COc2ccc3c(c2)OCCN(C[C@H](O)CN2CCc4ccccc4C2)C3=O)C1` (stereo partly drawn) [Example 106, 4-[(2R)-3-(3,4-dihydro-1H-isoquinolin-2-yl)-2-hydroxy-propyl]-8-[(1-methylpyrrolidin-3-yl)methoxy]-2,3-dihydro-1,4-benzoxazepin-5-one] displayed an IC50 of 100 to 1000 nM.

As for `CCN1C2CCC1CC(Oc1ccc3c(c1)N(C)CCN(C[C@H](O)CN1CCc4ccccc4C1)C3=O)C2` (stereo partly drawn) [Example 137, 4-[(2R)-3-(3,4-dihydro-1H-isoquinolin-2-yl)-2-hydroxy-propyl]-8-[(8-ethyl-8-azabicyclo[3.2.1]octan-3-yl)oxy]-1-methyl-2,3-dihydro-1,4-benzodiazepin-5-one], the IC50 is 1 to 100 nM.

Molecule `COC[C@H]1CCCN1Cc1ccc2c(c1)OCCN(C[C@H](O)CN1CCc3ccccc3C1)C2=O` [Example 50, 4-[(2R)-3-(3,4-dihydro-1H-isoquinolin-2-yl)-2-hydroxy-propyl]-8-[[(2R)-2-(methoxymethyl)pyrrolidin-1-yl]methyl]-2,3-dihydro-1,4-benzoxazepin-5-one] returned an IC50 of 1 to 100 nM.

With `CC(=O)N1C2CCC1CC(Oc1ccc3c(c1)OCCN(C[C@H](O)CN1CCc4ccccc4C1)C3=O)C2` (stereo partly drawn) [Example 173, 8-[(8-acetyl-8-azabicyclo[3.2.1]octan-3-yl)oxy]-4-[(2R)-3-(3,4-dihydro-1H-isoquinolin-2-yl)-2-hydroxy-propyl]-2,3-dihydro-1,4-benzoxazepin-5-one], the IC50 is 1 to 100 nM.

Molecule `O=C(c1ccc2c(c1)OCCN(C[C@H](O)CN1CCc3ccccc3C1)C2=O)N1CC2CCCC2C1` (stereo partly drawn) [Example 193, 8-(3,3a,4,5,6,6a-hexahydro-1H-cyclopenta[c]pyrrol-2-carbonyl)-4-[(2R)-3-(3,4-dihydro-1H-isoquinolin-2-yl)-2-hydroxy-propyl]-2,3-dihydro-1,4-benzoxazepin-5-one] yielded an IC50 of 100 to 1000 nM.

Turning to `CCN1CC[C@@H](Oc2ccc3c(c2)OCCN(C[C@H](O)CN2CCc4ccccc4C2)C3=O)C1` [Example 99, 4-[(2R)-3-(3,4-dihydro-1H-isoquinolin-2-yl)-2-hydroxy-propyl]-8-[(3R)-1-ethylpyrrolidin-3-yl]oxy-2,3-dihydro-1,4-benzoxazepin-5-one], the IC50 was 100 to 1000 nM.

The molecule `O=C1c2ccc(OCc3ccncc3)cc2OCCN1C[C@H](O)CN1CCc2ccccc2C1` [Example 57, 4-[(2R)-3-(3,4-dihydro-1H-isoquinolin-2-yl)-2-hydroxy-propyl]-8-(4-pyridylmethoxy)-2,3-dihydro-1,4-benzoxazepin-5-one] had an IC50 of 1 to 100 nM.

With `CC(=O)N1CCCC(Oc2ccc3c(c2)OCCN(C[C@H](O)CN2CCc4ccccc4C2)C3=O)C1` (stereo partly drawn) [Example 79, 8-[(1-acetyl-3-piperidyl)oxy]-4-[(2R)-3-(3,4-dihydro-1H-isoquinolin-2-yl)-2-hydroxy-propyl]-2,3-dihydro-1,4-benzoxazepin-5-one], the 50% inhibitory concentration (IC50) was 100 to 1000 nM.

Regarding `CC1(C)CN(C[C@H](O)CN2CCc3ccccc3C2)C(=O)c2ccc(CN3CC4(COC4)C3)cc2O1` [Example 170, 4-[(2R)-3-(3,4-dihydro-1H-isoquinolin-2-yl)-2-hydroxy-propyl]-2,2-dimethyl-8-(2-oxa-6-azaspiro[3.3]heptan-6-ylmethyl)-3H-1,4-benzoxazepin-5-one], the IC50 is 100 to 1000 nM.

`Cc1c(-c2ccc3c(c2)OCCN(C[C@H](O)CN2CCc4ccccc4C2)C3=O)cnn1C` [Example 233, 4-[(2R)-3-(3,4-dihydro-1H-isoquinolin-2-yl)-2-hydroxy-propyl]-8-(1,5-dimethylpyrazol-4-yl)-2,3-dihydro-1,4-benzoxazepin-5-one] had an IC50 of 100 to 1000 nM.

In turn, `C[C@@H]1CN(C[C@H](O)CN2CCc3ccccc3C2)C(=O)c2ccc(OC3CCN(CCO)CC3)cc2O1` [Example 219, (2R)-4-[(2R)-3-(3,4-dihydro-1H-isoquinolin-2-yl)-2-hydroxy-propyl]-8-[[1-(2-hydroxyethyl)-4-piperidyl]oxy]-2-methyl-2,3-dihydro-1,4-benzoxazepin-5-one] showed an IC50 of 1 to 100 nM.

Molecule `CC(C)N1CCC[C@H]1COc1ccc2c(c1)OCCN(C[C@H](O)CN1CCc3ccccc3C1)C2=O` [Example 101, 4-[(2R)-3-(3,4-dihydro-1H-isoquinolin-2-yl)-2-hydroxy-propyl]-8-[[(2S)-1-isopropylpyrrolidin-2-yl]methoxy]-2,3-dihydro-1,4-benzoxazepin-5-one] came in with an IC50 of 100 to 1000 nM.

For the molecule `CC(=O)N1CC[C@H](Oc2ccc3c(c2)N(C)CCN(C[C@H](O)CN2CCc4ccccc4C2)C3=O)C1` [Example 124, 8-[(3S)-1-acetylpyrrolidin-3-yl]oxy-4-[(2R)-3-(3,4-dihydro-1H-isoquinolin-2-yl)-2-hydroxy-propyl]-1-methyl-2,3-dihydro-1,4-benzodiazepin-5-one], the IC50 is 100 to 1000 nM.

In turn, `O=C(c1ccc2c(c1)OCCN(C[C@H](O)CN1CCc3ccccc3C1)C2=O)N1CCCC1` [Example 175, 4-[(2R)-3-(3,4-dihydro-1H-isoquinolin-2-yl)-2-hydroxy-propyl]-8-(pyrrolidin-1-carbonyl)-2,3-dihydro-1,4-benzoxazepin-5-one] showed an IC50 of 100 to 1000 nM.

`O=C1c2ccc(C3=CCNCC3)cc2OCCN1C[C@H](O)CN1CCc2ccccc2C1` [Example 15, 4-[(2R)-3-(3,4-dihydro-1H-isoquinolin-2-yl)-2-hydroxy-propyl]-8-(1,2,3,6-tetrahydropyridin-4-yl)-2,3-dihydro-1,4-benzoxazepin-5-one] displayed a half-maximal inhibitory concentration (IC50) of 1 to 100 nM.

On to `CN1CCN(C[C@H](O)CN2CCc3ccccc3C2)C(=O)c2ccc(C3=CCN(C(=O)OC(C)(C)C)CC3)cc21` [Example 120, tert-butyl 4-[4-[(2R)-3-(3,4-dihydro-1H-isoquinolin-2-yl)-2-hydroxy-propyl]-1-methyl-5-oxo-2,3-dihydro-1,4-benzodiazepin-8-yl]-3,6-dihydro-2H-pyridine-1-carboxylate], for which the concentration for half-maximal inhibition (IC50) was 1 to 100 nM.

Molecule `O=C1c2ccc(OC3CCN(CCO)CC3F)cc2OCCN1C[C@H](O)CN1CCc2ccccc2C1` (stereo partly drawn) [Example 208, 4-[(2R)-3-(3,4-dihydro-1H-isoquinolin-2-yl)-2-hydroxy-propyl]-8-[[3-fluoro-1-(2-hydroxyethyl)-4-piperidyl]oxy]-2,3-dihydro-1,4-benzoxazepin-5-one] showed an IC50 of 100 to 1000 nM.

In turn, `CN1CCN(C[C@H](O)CN2CCc3ccccc3C2)C(=O)c2ccc(C3=CCCCC3)cc21` [Example 118, 8-(cyclohexen-1-yl)-4-[(2R)-3-(3,4-dihydro-1H-isoquinolin-2-yl)-2-hydroxy-propyl]-1-methyl-2,3-dihydro-1,4-benzodiazepin-5-one] yielded an IC50 of 1 to 100 nM.

`O=C(c1ccc2c(c1)OCCN(C[C@H](O)CN1CCc3ccccc3C1)C2=O)N1CCOC(F)(F)C1` [Example 195, 8-(2,2-difluoromorpholin-4-carbonyl)-4-[(2R)-3-(3,4-dihydro-1H-isoquinolin-2-yl)-2-hydroxy-propyl]-2,3-dihydro-1,4-benzoxazepin-5-one] registered an IC50 of 100 to 1000 nM.

In the case of `O=C1c2ccc(F)cc2OCCN1C[C@H](O)CN1CCc2ccccc2C1` [Example 150, 4-[(2R)-3-(3,4-dihydro-1H-isoquinolin-2-yl)-2-hydroxy-propyl]-8-fluoro-2,3-dihydro-1,4-benzoxazepin-5-one], the IC50 was in the range of 100 to 1000 nM.

As for `O=C1c2ccc(C(=O)N3C4CCC3COC4)cc2OCCN1C[C@H](O)CN1CCc2ccccc2C1` [Example 189, 4-[(2R)-3-(3,4-dihydro-1H-isoquinolin-2-yl)-2-hydroxy-propyl]-8-(3-oxa-8-azabicyclo[3.2.1]octan-8-carbonyl)-2,3-dihydro-1,4-benzoxazepin-5-one], the IC50 was in the range of 100 to 1000 nM.
